In publication PMC5862592, “CDK8/19 inhibition induces premature G1/S transition and ATR-dependent cell death in prostate cancer cells” (Oncotarget, 2018):
Where two headings read alike, the source gives them in different places.

Legend:
Assay in all cases: biochemical
Design in all cases: KINOMEscan active site-directed competition binding assay (DiscoveRx), 456 kinases, per cent of control at 300 nM
Settings in all cases: read-out: Percent of Control (%)
[1] = molecular target: PKMYT1 (Homo sapiens, UniProt Q99640)
Procedure, shortened: (§1)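 Each compound is tested at 300 nmol/L against a panel of 456 kinases. Interaction is quantified by competition for the kinase active site.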

[2] = molecular target: CSNK1D (Homo sapiens, UniProt P48730)
Procedure, shortened: as §1

[3] = molecular target: ALK (Homo sapiens, UniProt Q9UM73)
Procedure, shortened: as §1

[4] = molecular target: T1, ASK2 (Homo sapiens, UniProt O95382)
T1 construct: gene MAP3K6
Procedure, shortened: as §1

[5] = molecular target: T2, DMPK2 (Homo sapiens, UniProt Q6DT37)
T2 construct: gene CDC42BPG
Procedure, shortened: as §1

[6] = molecular target: ULK1 (Homo sapiens, UniProt O75385)
Procedure, shortened: as §1

[7] = molecular target: T3, TRKA (Homo sapiens, UniProt P04629)
T3 construct: gene NTRK1
Procedure, shortened: as §1

[8] = molecular target: DYRK2 (Homo sapiens, UniProt Q92630)
Procedure, shortened: as §1

[9] = molecular target: DDR1 (Homo sapiens, UniProt Q08345)
Procedure, shortened: as §1

[10] = molecular target: RET(V804M) (Homo sapiens, UniProt P07949, V804M)
Procedure, shortened: as §1

[11] = molecular target: ACVR1 (Homo sapiens, UniProt Q04771)
Procedure, shortened: as §1

[12] = molecular target: TGFBR2 (Homo sapiens, UniProt P37173)
Procedure, shortened: as §1

[13] = molecular target: MAP4K2 (Homo sapiens, UniProt Q12851)
Procedure, shortened: as §1

[14] = molecular target: CDKL5 (Homo sapiens, UniProt O76039)
Procedure, shortened: as §1

[15] = molecular target: CAMK2B (Homo sapiens, UniProt Q13554)
Procedure, shortened: as §1

[16] = molecular target: LCK (Homo sapiens, UniProt P06239)
Procedure, shortened: as §1

[17] = molecular target: MARK3 (Homo sapiens, UniProt P27448)
Procedure, shortened: as §1

[18] = molecular target: T4, YSK4 (Homo sapiens, UniProt Q56UN5)
T4 construct: gene MAP3K19
Procedure, shortened: as §1

[19] = molecular target: FLT3-autoinhibited (Homo sapiens, UniProt P36888)
Procedure, shortened: as §1

[20] = molecular target: T5, JAK3(JH1domain-catalytic) (Homo sapiens, UniProt P52333)
T5 construct: JH1domain-catalytic
Procedure, shortened: as §1

[21] = molecular target: PRKD2 (Homo sapiens, UniProt Q9BZL6)
Procedure, shortened: as §1

[22] = molecular target: T6, ABL1-nonphosphorylated (Homo sapiens, UniProt P00519)
T6 construct: nonphosphorylated
Procedure, shortened: as §1

Sequence of CAMK2B (Q13554 whole entry): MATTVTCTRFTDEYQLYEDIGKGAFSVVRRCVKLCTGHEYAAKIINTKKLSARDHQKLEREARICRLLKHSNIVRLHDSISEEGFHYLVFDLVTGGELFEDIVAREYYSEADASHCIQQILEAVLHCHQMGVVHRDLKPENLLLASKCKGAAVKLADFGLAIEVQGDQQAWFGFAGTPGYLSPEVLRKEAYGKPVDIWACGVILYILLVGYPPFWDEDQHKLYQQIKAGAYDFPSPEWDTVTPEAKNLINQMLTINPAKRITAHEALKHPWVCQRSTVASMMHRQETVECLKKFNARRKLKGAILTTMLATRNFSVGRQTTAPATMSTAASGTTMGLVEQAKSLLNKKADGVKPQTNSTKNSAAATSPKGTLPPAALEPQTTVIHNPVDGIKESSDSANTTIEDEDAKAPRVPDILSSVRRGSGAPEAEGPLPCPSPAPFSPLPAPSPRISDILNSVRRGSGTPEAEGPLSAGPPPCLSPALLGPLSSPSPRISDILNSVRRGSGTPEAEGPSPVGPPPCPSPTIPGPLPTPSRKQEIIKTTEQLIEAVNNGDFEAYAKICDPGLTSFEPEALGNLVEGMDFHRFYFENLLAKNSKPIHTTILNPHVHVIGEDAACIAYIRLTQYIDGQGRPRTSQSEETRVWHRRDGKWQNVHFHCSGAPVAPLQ
T1 sequence (O95382 whole entry): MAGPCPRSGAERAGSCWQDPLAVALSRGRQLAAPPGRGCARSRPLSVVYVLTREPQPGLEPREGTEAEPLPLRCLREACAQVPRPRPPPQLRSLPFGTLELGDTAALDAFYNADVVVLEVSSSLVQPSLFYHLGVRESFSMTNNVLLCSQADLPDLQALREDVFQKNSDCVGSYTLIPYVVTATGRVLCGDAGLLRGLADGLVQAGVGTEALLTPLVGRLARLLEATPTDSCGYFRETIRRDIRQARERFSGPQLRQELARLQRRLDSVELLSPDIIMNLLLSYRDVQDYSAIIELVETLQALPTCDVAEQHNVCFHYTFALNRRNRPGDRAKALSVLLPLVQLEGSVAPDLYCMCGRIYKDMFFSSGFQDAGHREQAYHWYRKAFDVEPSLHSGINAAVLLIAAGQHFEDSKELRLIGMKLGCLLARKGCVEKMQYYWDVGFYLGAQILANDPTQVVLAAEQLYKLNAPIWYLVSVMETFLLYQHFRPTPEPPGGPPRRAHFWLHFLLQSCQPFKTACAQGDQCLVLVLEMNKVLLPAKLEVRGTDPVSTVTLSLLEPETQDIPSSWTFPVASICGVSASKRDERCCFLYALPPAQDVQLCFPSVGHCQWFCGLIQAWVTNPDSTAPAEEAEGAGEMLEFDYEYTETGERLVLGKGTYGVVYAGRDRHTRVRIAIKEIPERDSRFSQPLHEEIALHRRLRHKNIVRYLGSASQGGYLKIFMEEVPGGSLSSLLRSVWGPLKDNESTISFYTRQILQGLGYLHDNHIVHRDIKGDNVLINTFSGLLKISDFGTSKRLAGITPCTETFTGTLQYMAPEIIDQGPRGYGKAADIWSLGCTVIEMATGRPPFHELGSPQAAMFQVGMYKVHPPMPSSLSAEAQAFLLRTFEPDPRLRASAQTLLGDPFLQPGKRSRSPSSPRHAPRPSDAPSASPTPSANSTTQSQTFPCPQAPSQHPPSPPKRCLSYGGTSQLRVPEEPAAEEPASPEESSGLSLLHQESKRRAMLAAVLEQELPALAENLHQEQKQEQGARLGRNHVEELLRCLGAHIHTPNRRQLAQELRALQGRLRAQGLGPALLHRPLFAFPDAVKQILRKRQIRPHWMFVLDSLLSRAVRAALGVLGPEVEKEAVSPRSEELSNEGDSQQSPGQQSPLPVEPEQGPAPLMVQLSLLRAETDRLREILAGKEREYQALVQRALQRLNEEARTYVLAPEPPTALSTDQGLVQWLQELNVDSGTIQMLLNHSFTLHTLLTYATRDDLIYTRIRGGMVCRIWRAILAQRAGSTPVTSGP
Sequence of LCK (P06239 whole entry): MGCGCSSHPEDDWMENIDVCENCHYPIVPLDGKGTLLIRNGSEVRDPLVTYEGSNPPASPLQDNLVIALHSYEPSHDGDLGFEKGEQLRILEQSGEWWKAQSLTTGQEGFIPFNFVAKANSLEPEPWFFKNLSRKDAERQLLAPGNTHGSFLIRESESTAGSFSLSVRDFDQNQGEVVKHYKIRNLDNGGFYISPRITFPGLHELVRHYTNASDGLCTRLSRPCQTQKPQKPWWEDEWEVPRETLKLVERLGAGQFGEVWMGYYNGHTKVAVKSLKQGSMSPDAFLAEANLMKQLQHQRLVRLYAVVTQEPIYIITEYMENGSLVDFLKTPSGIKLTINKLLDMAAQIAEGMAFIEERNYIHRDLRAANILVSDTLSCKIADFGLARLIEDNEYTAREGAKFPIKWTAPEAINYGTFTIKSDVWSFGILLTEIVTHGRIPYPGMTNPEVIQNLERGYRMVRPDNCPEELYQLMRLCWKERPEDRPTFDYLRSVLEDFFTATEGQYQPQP
T3 sequence (P04629 whole entry): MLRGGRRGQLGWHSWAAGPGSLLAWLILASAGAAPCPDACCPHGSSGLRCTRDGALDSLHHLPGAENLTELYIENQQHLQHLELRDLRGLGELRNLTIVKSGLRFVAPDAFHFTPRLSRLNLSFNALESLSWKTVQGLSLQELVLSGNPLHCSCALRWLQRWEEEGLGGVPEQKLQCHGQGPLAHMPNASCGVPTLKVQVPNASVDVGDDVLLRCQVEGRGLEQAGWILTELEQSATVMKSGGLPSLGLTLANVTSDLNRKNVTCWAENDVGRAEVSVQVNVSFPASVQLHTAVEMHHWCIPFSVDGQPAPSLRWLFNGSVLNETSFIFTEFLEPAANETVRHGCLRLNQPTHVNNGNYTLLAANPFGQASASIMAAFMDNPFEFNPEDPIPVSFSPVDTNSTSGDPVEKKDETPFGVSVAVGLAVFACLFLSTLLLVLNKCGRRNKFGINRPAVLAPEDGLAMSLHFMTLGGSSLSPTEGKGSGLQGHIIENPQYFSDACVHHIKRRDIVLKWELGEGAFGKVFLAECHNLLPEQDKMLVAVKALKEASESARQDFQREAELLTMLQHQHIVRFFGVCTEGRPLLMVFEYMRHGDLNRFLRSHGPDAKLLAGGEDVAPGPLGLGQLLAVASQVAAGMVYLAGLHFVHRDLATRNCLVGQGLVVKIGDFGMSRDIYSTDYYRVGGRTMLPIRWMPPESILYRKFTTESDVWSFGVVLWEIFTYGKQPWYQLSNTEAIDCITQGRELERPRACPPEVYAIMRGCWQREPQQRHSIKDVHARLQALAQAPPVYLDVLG
Sequence of MAP4K2 (Q12851 whole entry): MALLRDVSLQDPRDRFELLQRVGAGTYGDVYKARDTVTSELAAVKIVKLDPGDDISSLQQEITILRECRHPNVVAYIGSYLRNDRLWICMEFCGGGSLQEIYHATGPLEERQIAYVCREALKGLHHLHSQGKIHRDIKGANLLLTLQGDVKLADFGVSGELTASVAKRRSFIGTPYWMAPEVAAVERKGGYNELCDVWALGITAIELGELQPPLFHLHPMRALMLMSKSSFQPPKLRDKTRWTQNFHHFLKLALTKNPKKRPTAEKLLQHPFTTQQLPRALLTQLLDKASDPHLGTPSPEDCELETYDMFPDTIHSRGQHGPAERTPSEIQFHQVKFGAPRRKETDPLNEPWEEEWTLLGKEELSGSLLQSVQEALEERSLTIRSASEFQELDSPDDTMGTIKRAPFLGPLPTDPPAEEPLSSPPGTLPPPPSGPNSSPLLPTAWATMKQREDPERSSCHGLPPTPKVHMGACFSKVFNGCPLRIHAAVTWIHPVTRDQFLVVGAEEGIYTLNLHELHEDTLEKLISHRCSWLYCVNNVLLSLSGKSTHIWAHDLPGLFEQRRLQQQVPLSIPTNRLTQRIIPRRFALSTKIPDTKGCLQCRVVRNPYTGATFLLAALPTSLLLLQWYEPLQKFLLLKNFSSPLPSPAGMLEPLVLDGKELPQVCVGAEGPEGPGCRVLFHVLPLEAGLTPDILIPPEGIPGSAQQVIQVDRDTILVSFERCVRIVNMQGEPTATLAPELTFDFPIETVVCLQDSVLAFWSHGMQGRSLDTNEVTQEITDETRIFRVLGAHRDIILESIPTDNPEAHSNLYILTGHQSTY
Sequence of TGFBR2 (P37173 whole entry): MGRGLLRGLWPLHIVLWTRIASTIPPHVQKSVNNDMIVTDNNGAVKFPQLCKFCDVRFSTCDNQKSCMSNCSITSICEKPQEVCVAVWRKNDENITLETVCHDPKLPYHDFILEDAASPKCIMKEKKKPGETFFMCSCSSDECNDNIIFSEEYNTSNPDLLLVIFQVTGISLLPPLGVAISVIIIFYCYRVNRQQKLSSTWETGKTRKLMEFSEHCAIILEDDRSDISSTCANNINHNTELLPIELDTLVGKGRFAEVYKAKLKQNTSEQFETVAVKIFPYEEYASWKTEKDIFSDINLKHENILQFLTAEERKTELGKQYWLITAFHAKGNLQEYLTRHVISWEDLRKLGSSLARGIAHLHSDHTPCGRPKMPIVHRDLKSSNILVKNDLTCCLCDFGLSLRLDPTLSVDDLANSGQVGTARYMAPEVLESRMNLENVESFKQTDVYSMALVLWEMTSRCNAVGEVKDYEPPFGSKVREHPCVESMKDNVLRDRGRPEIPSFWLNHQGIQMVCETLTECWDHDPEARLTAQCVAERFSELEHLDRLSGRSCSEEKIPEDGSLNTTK
Sequence of CSNK1D (P48730 whole entry): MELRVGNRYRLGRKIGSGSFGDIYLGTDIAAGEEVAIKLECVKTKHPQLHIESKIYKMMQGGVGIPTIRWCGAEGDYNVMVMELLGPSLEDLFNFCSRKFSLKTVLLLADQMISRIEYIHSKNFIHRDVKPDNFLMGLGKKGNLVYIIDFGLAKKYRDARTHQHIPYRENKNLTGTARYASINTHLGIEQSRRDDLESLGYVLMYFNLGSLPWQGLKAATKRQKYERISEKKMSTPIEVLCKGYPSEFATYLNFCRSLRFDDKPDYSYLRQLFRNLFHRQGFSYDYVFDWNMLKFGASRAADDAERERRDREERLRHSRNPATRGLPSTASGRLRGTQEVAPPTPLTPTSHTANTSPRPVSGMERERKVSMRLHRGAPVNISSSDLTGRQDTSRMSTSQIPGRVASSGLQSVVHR

Compound: Cc1ncccc1Oc1sc(C(N)=O)c2c1-c1c(cnn1C)CC2 [T-474, 1-methyl-8-((2-methylpyridin-3-yl)oxy)-4,5-dihydro-1H-thieno[3,4-g]indazole-6-carboxamide]
- remaining binding at 0.3 µM [1]: 71%
- remaining binding at 0.3 µM [2]: 61%
- remaining binding at 0.3 µM [3]: 98%
- remaining binding at 0.3 µM [4]: 100%
- remaining binding at 0.3 µM [5]: 87%
- remaining binding at 0.3 µM [6]: 43%
- remaining binding at 0.3 µM [7]: 95%
- remaining binding at 0.3 µM [8]: 100%
- remaining binding at 0.3 µM [9]: 100%
- remaining binding at 0.3 µM [10]: 100%
- remaining binding at 0.3 µM [11]: 100%
- remaining binding at 0.3 µM [12]: 78%
- remaining binding at 0.3 µM [13]: 100%
- remaining binding at 0.3 µM [14]: 100%
- remaining binding at 0.3 µM [15]: 99%
- remaining binding at 0.3 µM [16]: 100%
- remaining binding at 0.3 µM [17]: 88%
- remaining binding at 0.3 µM [18]: 100%
- remaining binding at 0.3 µM [19]: 78%
- remaining binding at 0.3 µM [20]: 72%
- remaining binding at 0.3 µM [21]: 100%
- remaining binding at 0.3 µM [22]: 87%

Compound: O=C(/C=C/c1cnccc1-c1ccc(F)cc1)Nc1ccc(CCc2nnco2)cc1 [T-418, (2E)-3-(4-(4-fluorophenyl)pyridin-3-yl)-N-(4-(2-(1,3,4-oxadiazol-2-yl)ethyl)phenyl)acrylamide]
- remaining binding at 0.3 µM ([1]; sheet T-418): 73%
- remaining binding at 0.3 µM ([2]; sheet T-418): 84%
- remaining binding at 0.3 µM ([3]; sheet T-418): 81%
- remaining binding at 0.3 µM ([4]; sheet T-418): 94%
- remaining binding at 0.3 µM ([5]; sheet T-418): 71%
- remaining binding at 0.3 µM ([6]; sheet T-418): 41%
- remaining binding at 0.3 µM ([7]; sheet T-418): 92%
- remaining binding at 0.3 µM ([8]; sheet T-418): 100%
- remaining binding at 0.3 µM ([9]; sheet T-418): 100%
- remaining binding at 0.3 µM ([10]; sheet T-418): 100%
- remaining binding at 0.3 µM ([11]; sheet T-418): 100%
- remaining binding at 0.3 µM ([12]; sheet T-418): 84%
- remaining binding at 0.3 µM ([13]; sheet T-418): 100%
- remaining binding at 0.3 µM ([14]; sheet T-418): 88%
- remaining binding at 0.3 µM ([15]; sheet T-418): 84%
- remaining binding at 0.3 µM ([16]; sheet T-418): 98%
- remaining binding at 0.3 µM ([17]; sheet T-418): 80%
- remaining binding at 0.3 µM ([18]; sheet T-418): 100%
- remaining binding at 0.3 µM ([19]; sheet T-418): 89%
- remaining binding at 0.3 µM ([20]; sheet T-418): 68%
- remaining binding at 0.3 µM ([21]; sheet T-418): 76%
- remaining binding at 0.3 µM ([22]; sheet T-418): 89%
